According to US20190241573A1, “ISOQUINOLINE DERIVATIVES AS PERK INHIBITORS” (GlaxoSmithKline Intellectual Property Development Limited, priority 2016, published 2019):

Target: T1, GST-PERK enzyme (Homo sapiens, UniProt Q9NZJ5)
T1 sequence (Q9NZJ5 30-1116): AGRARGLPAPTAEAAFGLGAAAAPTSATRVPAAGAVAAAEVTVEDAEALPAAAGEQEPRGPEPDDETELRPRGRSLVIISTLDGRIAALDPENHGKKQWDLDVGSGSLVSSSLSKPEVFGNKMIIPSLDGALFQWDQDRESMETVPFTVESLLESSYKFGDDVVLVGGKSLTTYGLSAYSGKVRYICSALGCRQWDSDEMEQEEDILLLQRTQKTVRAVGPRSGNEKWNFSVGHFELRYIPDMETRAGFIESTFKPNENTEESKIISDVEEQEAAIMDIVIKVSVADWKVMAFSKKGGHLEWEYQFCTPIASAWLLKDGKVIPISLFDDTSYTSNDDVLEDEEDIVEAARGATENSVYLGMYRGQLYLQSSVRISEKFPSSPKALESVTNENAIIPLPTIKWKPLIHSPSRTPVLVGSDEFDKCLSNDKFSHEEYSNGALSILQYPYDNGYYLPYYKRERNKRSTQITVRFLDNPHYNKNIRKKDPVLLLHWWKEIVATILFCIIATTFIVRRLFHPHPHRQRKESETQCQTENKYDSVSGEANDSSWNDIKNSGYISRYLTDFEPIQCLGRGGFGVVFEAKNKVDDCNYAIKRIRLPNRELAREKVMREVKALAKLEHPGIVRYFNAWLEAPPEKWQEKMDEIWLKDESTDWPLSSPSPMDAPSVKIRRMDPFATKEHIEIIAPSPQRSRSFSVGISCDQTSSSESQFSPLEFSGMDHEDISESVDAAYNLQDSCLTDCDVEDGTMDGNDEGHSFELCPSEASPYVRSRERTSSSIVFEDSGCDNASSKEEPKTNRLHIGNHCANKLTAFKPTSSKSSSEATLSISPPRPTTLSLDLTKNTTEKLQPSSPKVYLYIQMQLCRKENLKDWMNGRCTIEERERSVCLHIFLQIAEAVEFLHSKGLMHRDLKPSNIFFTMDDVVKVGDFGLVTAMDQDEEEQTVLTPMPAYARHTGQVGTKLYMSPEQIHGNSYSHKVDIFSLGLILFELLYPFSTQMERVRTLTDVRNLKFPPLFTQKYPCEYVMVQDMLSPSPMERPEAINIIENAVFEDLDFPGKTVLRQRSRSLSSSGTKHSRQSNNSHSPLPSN
Experiment: PERK enzyme assay
Type: biochemical
Settings: 5 μM ATP; biotin-eIF2α substrate, 60 minutes; read-out: average PERK Enzyme (5 μM ATP) pIC50 (converted)
Method: Example 61: PERK Enzyme Assay
Compounds of the invention were assayed for PERK enzyme inhibitory activity with modifications to previously reported conditions (Axten et al. J. Med. Chem., 2012, 55, 7193-7207). Briefly, various concentrations of compounds (maximum 1% DMSO) were dispensed into 384-well plates containing GST-PERK enzyme. ATP and biotin-elF2α were added and after 60 minutes the reaction was quenched. After 2 hrs, a fluorescence plate reader was used to measure inhibition and pIC50s were calculated. The activity of compound 1 was determined at an ATP concentration=5 μM. For compounds 2-20 the PERK activity was determined at ATP concentration=500 μM ATP.

SMILES | IC50 [nM]
Cn1cc(-c2ccc3cc(Cc4ccccc4)ncc3c2)c2c(N)ncnc21 [Example 1, 5-(3-Benzylisoquinolin-7-yl)-7-methyl-7H-pyrrolo[2,3-d]pyrimidin-4-amine] | 15.8

Same assay, conditions: 500 μM ATP; biotin-eIF2α substrate, 60 minutes; read-out: average PERK Enzyme (500 μM ATP) pIC50 (converted)

SMILES | IC50 [nM]
Cn1cc(-c2ccc3cc(Cc4cc(F)ccc4F)ncc3c2F)c2c(N)ncnc21 [Example 17, 5-(3-(2,5-difluorobenzyl)-8-fluoroisoquinolin-7-yl)-7-methyl-7H-pyrrolo[2,3-d]pyrimidin-4-amine] | 1000
Cc1nc(N)c2c(-c3ccc4cc(Cc5cc(F)cc(F)c5)ncc4c3F)cn(C)c2n1 [Example 25, 5-(3-(3,5-difluorobenzyl)-8-fluoroisoquinolin-7-yl)-2,7-dimethyl-7H-pyrrolo[2,3-d]pyrimidin-4-amine] | > 3980
Cc1nc(N)c2c(-c3ccc4cc(Cc5cc(F)cc(F)c5)ncc4c3F)cn(C3CC3)c2n1 [Example 28, 7-cyclopropyl-5-(3-(3,5-difluorobenzyl)-8-fluoroisoquinolin-7-yl)-2-methyl-7H-pyrrolo[2,3-d]pyrimidin-4-amine] | 2510
Nc1ncnc2c1c(-c1ccc3cc(Cc4cncc(F)c4)ncc3c1F)cn2C1CC1 [Example 53, 7-cyclopropyl-5-(8-fluoro-3-((5-fluoropyridin-3-yl)methyl)isoquinolin-7-yl)-7H-pyrrolo[2,3-d]pyrimidin-4-amine] | 631
Cc1cc(C)cc(C(=O)c2cc3ccc(-c4cn(C)c5ncnc(N)c45)cc3cn2)c1 [Example 15, (7-(4-amino-7-methyl-7H-pyrrolo[2,3-d]pyrimidin-5-yl)isoquinolin-3-yl)(3,5-dimethylphenyl)methanone] | > 3980
Nc1ncnc2c1c(-c1ccc3cc(Cc4cc(C(F)(F)F)ccc4F)ncc3c1F)cn2C1CC1 [Example 41, 7-cyclopropyl-5-(8-fluoro-3-(2-fluoro-5-(trifluoromethyl)benzyl)isoquinolin-7-yl)-7H-pyrrolo[2,3-d]pyrimidin-4-amine] | 100
CN(C)CCn1cc(-c2ccc3cc(Cc4cc(F)cc(F)c4)ncc3c2F)c2c(N)ncnc21 [Example 47, 5-(3-(3,5-difluorobenzyl)-8-fluoroisoquinolin-7-yl)-7-(2-(dimethylamino)ethyl)-7H-pyrrolo[2,3-d]pyrimidin-4-amine] | 1580
CCn1cc(-c2ccc3cc(Cc4cc(F)cc(F)c4)ncc3c2F)c2c(N)ncnc21 [Example 6, 5-(3-(3,5-difluorobenzyl)-8-fluoroisoquinolin-7-yl)-7-ethyl-7H-pyrrolo[2,3-d]pyrimidin-4-amine] | 158
Nc1ncnc2c1c(-c1ccc3cc(Cc4cccc(Cl)c4F)ncc3c1F)cn2C1CC1 [Example 51, 5-(3-(3-chloro-2-fluorobenzyl)-8-fluoroisoquinolin-7-yl)-7-cyclopropyl-7H-pyrrolo[2,3-d]pyrimidin-4-amine] | 3.16
Nc1ncnn2ccc(-c3ccc4cc(Cc5cc(F)cc(F)c5)ncc4c3F)c12 [Example 58, 5-(3-(3,5-difluorobenzyl)-8-fluoroisoquinolin-7-yl)pyrrolo[2,1-f][1,2,4]triazin-4-amine] | > 3980
Cn1cc(-c2ccc3cc(Cc4cccc(C(F)(F)F)c4)ncc3c2F)c2c(N)ncnc21 [Example 19, 5-(8-fluoro-3-(3-(trifluoromethyl)benzyl)isoquinolin-7-yl)-7-methyl-7H-pyrrolo[2,3-d]pyrimidin-4-amine] | > 3980
Nc1ncnc2c1c(-c1ccc3cc(Cc4cc(F)cc(F)c4)ncc3c1F)nn2C1CC1 [Example 29, 1-cyclopropyl-3-(3-(3,5-difluorobenzyl)-8-fluoroisoquinolin-7-yl)-1H-pyrazolo[3,4-d]pyrimidin-4-amine] | > 3980
Cn1cc(-c2ccc3cc(Cc4cc(F)cc(F)c4)ncc3c2F)c2c(N)ncnc21 [Example 4, 5-(3-(3,5-Difluorobenzyl)-8-fluoroisoquinolin-7-yl)-7-methyl-7H-pyrrolo[2,3-d]pyrimidin-4-amine] | 251
Nc1ncnc2c1c(-c1ccc3cc(Cc4cc(F)cc(F)c4)ncc3c1F)cn2CC(F)(F)F [Example 23, 5-(3-(3,5-difluorobenzyl)-8-fluoroisoquinolin-7-yl)-7-(2,2,2-trifluoroethyl)-7H-pyrrolo[2,3-d]pyrimidin-4-amine] | > 3980
Cn1cc(-c2ccc3cc(Cc4cc(F)cc(C(F)(F)F)c4)ncc3c2F)c2c(N)ncnc21 [Example 18, 5-(8-fluoro-3-(3-fluoro-5-(trifluoromethyl)benzyl)isoquinolin-7-yl)-7-methyl-7H-pyrrolo[2,3-d]pyrimidin-4-amine] | > 3980
Cc1ccccc1Cc1cc2ccc(-c3cn(C4CC4)c4ncnc(N)c34)c(F)c2cn1 [Example 38, 7-cyclopropyl-5-(8-fluoro-3-(2-methylbenzyl)isoquinolin-7-yl)-7H-pyrrolo[2,3-d]pyrimidin-4-amine] | 12.6

Tested on: prion infected mice
Experiment: not given
Settings: cited from earlier work

SMILES | neuroprotective effect and clinical signs of disease
Cn1cc(-c2ccc3c(c2)CCN3C(=O)Cc2cccc(C(F)(F)F)c2)c2c(N)ncnc21 [GSK2606414, 7-methyl-5-(1-{[3-(trifluoromethyl)phenyl]acetyl}-2,3-dihydro-1H-indol-5-yl)-7H-pyrrolo[2,3-d]pyrimidin-4-amine] | provide a neuroprotective effect and prevent clinical signs of disease
